Measured values taken from ChEMBL document CHEMBL3994643, “Synthesis and glucose-stimulate insulin secretion (GSIS) evaluation of vindoline derivatives” (Bioorg Med Chem Lett, 2017).

system: MIN6; test: Induction of glucose-stimulated insulin secretion in mouse MIN6 cells after 2 hrs by ELISA; format: functional, cell-based; settings: MIN6, 2 h

| SMILES | EC50 |
| --- | --- |
| CC[C@]12C=CCN3CC[C@@]4(c5ccc(OC)cc5N(C)[C@H]4[C@@](O)(C(=O)OC)[C@@H]1OC(C)=O)[C@@H]32 | 50.2 µM |
| CCC(=O)NC[C@@]1(O)[C@H](OC(=O)C(C)C)[C@]2(CC)C=CCN3CC[C@@]4(c5ccc(OC)cc5N(C)[C@@H]14)[C@@H]32 | 18.5 µM |
| CC[C@]12C=CCN3CC[C@@]4(c5ccc(OC)cc5N(C)[C@H]4[C@@](O)(COC)[C@@H]1OC(C)=O)[C@@H]32 | 41 µM |
| CCCCOC[C@@]1(O)[C@H](OC(C)=O)[C@]2(CC)C=CCN3CC[C@@]4(c5ccc(OC)cc5N(C)[C@@H]14)[C@@H]32 | > 100 µM |
| CC[C@]12C=CCN3CC[C@@]4(c5ccc(OC)cc5N(C)[C@H]4[C@@](O)(C(=O)OC)[C@@H]1OC)[C@@H]32 | > 100 µM |
| CC[C@]12C=CCN3CC[C@@]4(c5ccc(OC)cc5N(C)[C@H]4[C@@](O)(C(=O)OC)[C@@H]1O)[C@@H]32 | > 100 µM |
| CCC(=O)O[C@@H]1[C@]2(CC)C=CCN3CC[C@@]4(c5ccc(OC)cc5N(C)[C@H]4[C@@]1(O)C(=O)OC)[C@@H]32 | 32.6 µM |
| CC[C@]12C=CCN3CC[C@@]4(c5ccc(OC)cc5N(C)[C@H]4[C@@](O)(C(=O)OC)[C@@H]1OC(=O)C1CCCCC1)[C@@H]32 | 80.5 µM |
| CC[C@]12C=CCN3CC[C@@]4(c5ccc(OC)cc5N(C)[C@H]4[C@@](O)(C(=O)OC)[C@@H]1OC(=O)C(C)C)[C@@H]32 | 10.4 µM |
| CCCOC[C@@]1(O)[C@H](OC(C)=O)[C@]2(CC)C=CCN3CC[C@@]4(c5ccc(OC)cc5N(C)[C@@H]14)[C@@H]32 | 41.5 µM |
| CC[C@]12C=CCN3CC[C@@]4(c5ccc(OC)cc5N(C)[C@H]4[C@@](O)(CNC(=O)C(C)(C)C)[C@@H]1OC(C)=O)[C@@H]32 | 21 µM |
| CCO[C@@H]1[C@]2(CC)C=CCN3CC[C@@]4(c5ccc(OC)cc5N(C)[C@H]4[C@@]1(O)C(=O)OC)[C@@H]32 | 62.2 µM |
| CC[C@]12C=CCN3CC[C@@]4(c5ccc(OC)cc5N(C)[C@H]4[C@@](O)(CNC(C)=O)[C@@H]1OC(C)=O)[C@@H]32 | 19.3 µM |
| CC[C@]12CCCN3CC[C@@]4(c5ccc(OC)cc5N(C)[C@H]4[C@@](O)(C(=O)OC)[C@@H]1OC(=O)C(C)C)[C@@H]32 | 14.2 µM |
| CCCCO[C@@H]1[C@]2(CC)C=CCN3CC[C@@]4(c5ccc(OC)cc5N(C)[C@H]4[C@@]1(O)C(=O)OC)[C@@H]32 | > 100 µM |
| CCCO[C@@H]1[C@]2(CC)C=CCN3CC[C@@]4(c5ccc(OC)cc5N(C)[C@H]4[C@@]1(O)C(=O)OC)[C@@H]32 | 64.3 µM |
| CCC(=O)OC[C@@]1(O)[C@H](OC(C)=O)[C@]2(CC)C=CCN3CC[C@@]4(c5ccc(OC)cc5N(C)[C@@H]14)[C@@H]32 | 51 µM |
| CCOC[C@@]1(O)[C@H](OC(C)=O)[C@]2(CC)C=CCN3CC[C@@]4(c5ccc(OC)cc5N(C)[C@@H]14)[C@@H]32 | 11 µM |
| CC[C@]12C=CCN3CC[C@@]4(c5ccc(OC)cc5N(C)[C@H]4[C@@](O)(C(=O)OC)[C@@H]1OC(=O)c1ccccc1)[C@@H]32 | 62.2 µM |
| CC[C@]12C=CCN3CC[C@@]4(c5ccc(OC)cc5N(C)[C@H]4[C@@](O)(COC(=O)C(C)C)[C@@H]1OC(C)=O)[C@@H]32 | > 100 µM |
| CCC(=O)NC[C@@]1(O)[C@H](OC(C)=O)[C@]2(CC)C=CCN3CC[C@@]4(c5ccc(OC)cc5N(C)[C@@H]14)[C@@H]32 | 12.7 µM |
| CCOC[C@@]1(O)[C@H](OC(=O)C(C)C)[C@]2(CC)C=CCN3CC[C@@]4(c5ccc(OC)cc5N(C)[C@@H]14)[C@@H]32 | 14.2 µM |
| CCC(=O)O[C@@H]1[C@]2(CC)CCCN3CC[C@@]4(c5ccc(OC)cc5N(C)[C@H]4[C@@]1(O)C(=O)OC)[C@@H]32 | 38.5 µM |
